Test results taken from paper PMC4038399, “Experimental validation of [sequence]^comb virtual ligand screening results for eight proteins yields novel nanomolar and micromolar binders” (Journal of Cheminformatics, 2014).
Values after ≈ are worked out from the molar mass of the structure shown. Like-named read-outs stand apart in the source and are kept apart here.

Columns and labels:
[1] = molecular target: E. coli dihydrofolate reductase (DHFR) (Escherichia coli, UniProt P0ABQ4); test: biochemical; type: binding; conditions: Table S3; for Kd: computed from the thermal shifts obtained, read-out: KD (Approx); for Q (quality score): ratio ΔFmelt/ΔFtotal of the melting curve
Experimental: (§1) High throughput thermal shift assays were carried out following established guidelines (Additional file 1: Table S1). Protein melting curves were obtained from samples aliquoted in 96-well plates using a RealPlex quantitative PCR instrument from Eppendorf (Eppendorf, NY, USA), with Sypro orange dye from Invitrogen as the fluorescent probe. A uniform final concentration of 5 X (supplied as a 5000 X stock solution) was used in all experiments. […] For standardization, different buffers and pH were checked. Thereafter, 100 mM HEPES pH 7.3 and 150 mM NaCl were used in all unfolding experiments. The volume of each reaction was 20 μl, and appropriate dye and protein controls were included. All experiments were done with a minimum of two replicates, with the mean value considered for further analysis. Several drugs/small molecules interact with Sypro orange and lead to aberrant signal enhancements. An additional control to rule out drug-dye interaction was carried out with all the constituents kept constant except for the protein of interest. The protein/protein-drug curves were reported after subtracting the respective dye alone/drug-dye curves.
(§2) Each melting curve was assigned a quality score (Q), the ratio of the melting-associated increase in fluorescence (ΔFmelt) to the total fluorescence range (ΔFtotal). Q = 1 is a high-quality curve, while Q = 0 indicates no thermal transition. Though an arbitrary Q value cutoff was not applied to judge curve quality, the curves were manually curated with Q values reported.
(§3) Subsequent to standardization, (see SI Methods), the validity of the top 1% of […]^comb’s predictions on the test set of eight diverse proteins was examined. To be conservative, we focused only on those protein/ligand pairs showing single sigmoidal thermal transition curves. The fit to Boltzmann’s equation (Eq. 1) was employed to estimate the melting temperature from the observed intensity, I.
(§4) (4) I=Imin+Imax-Imin/1+e^Tm-T/a
(§5) Imin and Imax are the minimum and maximum intensities; a denotes the slope of the curve at the transition midpoint temperate, Tm. To estimate thermodynamic parameters, both van’t Hoff and Gibbs-Helmholtz analyses were done. To estimate the approximate ligand-binding affinity at Tm, Eq. (2) from reference was used with slight modifications; ΔCp is ignored.
(§6) (5) KLTm=exp-ΔH/R1/Tm-1/To/L
(§7) KL(Tm) is the ligand association constant and [L] is the free ligand concentration at Tm ([LTm] ~ [L]total, when [L]total > > the total concentration of protein. KD is the inverse of KL(Tm).
(§8) Thermal unfolding of the eight benchmark proteins was carried out in a 20 μl reaction mix with 100 mM HEPES pH 7.3, 150 mM NaCl, 5 X Sypro orange dye, 10 μM protein and 1 mM of all the predicted ligands.

[2] = molecular target: T1, Tryptophanyl tRNA synthetase (TrpRS) (Homo sapiens, UniProt P23381); test: Thermal shift (thermal melt) assay, Sypro orange; type: binding, H. sapiens; conditions: for Q (quality score): ratio ΔFmelt/ΔFtotal
T1 sequence (P23381 1-471): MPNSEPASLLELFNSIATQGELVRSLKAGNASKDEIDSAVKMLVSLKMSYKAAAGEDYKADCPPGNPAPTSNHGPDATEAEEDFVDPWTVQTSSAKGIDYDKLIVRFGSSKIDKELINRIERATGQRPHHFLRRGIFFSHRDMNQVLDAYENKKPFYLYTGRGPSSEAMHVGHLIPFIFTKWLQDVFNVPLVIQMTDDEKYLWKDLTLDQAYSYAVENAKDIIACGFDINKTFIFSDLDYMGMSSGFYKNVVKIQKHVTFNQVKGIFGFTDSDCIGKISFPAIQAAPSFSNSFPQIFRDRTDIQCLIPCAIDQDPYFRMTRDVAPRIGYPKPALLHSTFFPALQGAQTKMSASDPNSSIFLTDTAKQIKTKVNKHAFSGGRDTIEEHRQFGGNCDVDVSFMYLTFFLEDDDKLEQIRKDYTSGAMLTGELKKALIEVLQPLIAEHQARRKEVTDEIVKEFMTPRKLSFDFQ
Experimental: as §1, §2, §3, §4, §5, §6, §7, §8

[3] = molecular target: Catalytic subunit of cAMP-dependent protein kinase (cDPK) (Homo sapiens, UniProt P17612); test: Thermal shift (thermal melt) assay, Sypro orange; type: binding, H. sapiens; conditions: for ΔTm: Table S5, 1 mM ligand; for Kd: approximate, computed from the thermal shift, read-out: KD (Approx)
Experimental: (§9) High throughput thermal shift assays were carried out following established guidelines (Additional file 1: Table S1). Protein melting curves were obtained from samples aliquoted in 96-well plates using a RealPlex quantitative PCR instrument from Eppendorf (Eppendorf, NY, USA), with Sypro orange dye from Invitrogen as the fluorescent probe. A uniform final concentration of 5 X (supplied as a 5000 X stock solution) was used in all experiments. The dye was excited at 465 nm and emission recorded at 580 nm using the instrument’s filters. A heating ramp of 1°C/min from 25°C to 74°C was used, and one data point acquired for each degree increment. For standardization, different buffers and pH were checked. Thereafter, 100 mM HEPES pH 7.3 and 150 mM NaCl were used in all unfolding experiments. The volume of each reaction was 20 μl, and appropriate dye and protein controls were included. All experiments were done with a minimum of two replicates, with the mean value considered for further analysis. Several drugs/small molecules interact with Sypro orange and lead to aberrant signal enhancements. An additional control to rule out drug-dye interaction was carried out with all the constituents kept constant except for the protein of interest. The protein/protein-drug curves were reported after subtracting the respective dye alone/drug-dye curves.
as §2, with “reported. […] These were ignored (see Table 1).” for “reported.”
as §3, §4, §5, §6, §7, §8

[4] = molecular target: Nucleosome assembly protein 1 (NAP1) (Plasmodium knowlesi, UniProt A0A384KYS3); test: Thermal shift (thermal melt) assay, Sypro orange; type: binding, P. knowlesi; conditions: for Kd: approximate, computed from the thermal shift, read-out: KD (Approx)
Experimental: as §9
as §2, with “reported. […] These were ignored (see Table 1).” for “reported.”
as §3, §4, §5, §6, §7, §8

[5] = test system: HCT-116 colon carcinoma cell line; test: Cytotoxic assay on cancer cell line; type: cell-based
Experimental: Antimicrobial and anti-cancer tests were performed as in [80].

[6] = molecular target: T2, 1000001: Carboxy-terminus phosphatase domain of protein tyrosine phosphatase (2NV5) (Mus musculus, UniProt Q64487); test: Thermal shift (thermal melt) assay, Sypro orange; type: binding, M. musculus; set-up: key to Q (quality score): Q = ΔFmelt/ΔFtotal; 1 = high-quality curve, 0 = no transition; conditions: for ΔTm: in °C (unit assumed)
T2 construct: The C-terminal phosphatase domain from R. norvegicus (PDB ID: 2NV5) (1000001); New York structural genomics consortium (gift)
T2 sequence (Q64487 1331-1621): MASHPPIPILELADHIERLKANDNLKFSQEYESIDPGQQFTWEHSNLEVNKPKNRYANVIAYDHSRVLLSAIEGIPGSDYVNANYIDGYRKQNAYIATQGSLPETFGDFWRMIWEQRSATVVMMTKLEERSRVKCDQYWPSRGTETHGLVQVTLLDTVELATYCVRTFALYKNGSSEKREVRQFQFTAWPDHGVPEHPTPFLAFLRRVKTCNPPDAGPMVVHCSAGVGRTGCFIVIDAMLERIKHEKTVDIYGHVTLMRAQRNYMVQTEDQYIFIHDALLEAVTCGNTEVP
Experimental: as §9
as §2, with “reported. […] These were ignored (see Table 1).” for “reported.”
as §3, §4, §5, §6, §7, §8

[7] = molecular target: T3, 1000006: catalytic domain of protein tyrosine phosphatase (2G59) (Homo sapiens, UniProt Q16827); test: Thermal shift (thermal melt) assay, Sypro orange; type: binding, H. sapiens; conditions: Table S6; known binders of 1000001 tested on 1000006; in °C (unit assumed)
T3 construct: the catalytic domain of PTP from H. sapiens (PDB ID: 2G59) (1000006); New York structural genomics consortium (gift)
T3 sequence (Q16827 938-1195 limits assumed): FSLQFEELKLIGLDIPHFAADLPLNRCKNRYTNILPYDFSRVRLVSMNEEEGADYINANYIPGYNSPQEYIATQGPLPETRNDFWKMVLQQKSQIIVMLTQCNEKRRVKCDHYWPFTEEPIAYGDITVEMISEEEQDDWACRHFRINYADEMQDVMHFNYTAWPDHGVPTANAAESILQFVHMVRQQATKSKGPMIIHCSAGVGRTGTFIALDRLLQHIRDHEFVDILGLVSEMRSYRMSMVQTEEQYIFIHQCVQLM
Experimental: as §9
as §2, with “reported. […] These were ignored (see Table 1).” for “reported.”
as §3, §4, §5, §6, §7, §8

[8] = molecular target: Ubiquitin conjugating enzyme (UCE) (Plasmodium falciparum, UniProt Q8I607); test: Thermal shift (thermal melt) assay, Sypro orange; type: binding, P. falciparum; conditions: for Kd: approximate, computed from the thermal shift; for ΔTm: thermal shift, 1 mM ligand, 10 μM protein
Experimental: as §9
as §2, with “reported. […] These were ignored (see Table 1).” for “reported.”
as §3, §4, §5, §6, §7, §8

[9] = Table S4, TrpRS, computed from the thermal shifts obtained, read-out: KD (Approx)
[10] = Table S4, TrpRS, in °C (unit assumed)
[11] = approximate, computed from the thermal shift, read-out: KD
[12] = inhibitory concentration for 50% growth inhibition

Sequence of E. coli dihydrofolate reductase (DHFR) (P0ABQ4 whole entry): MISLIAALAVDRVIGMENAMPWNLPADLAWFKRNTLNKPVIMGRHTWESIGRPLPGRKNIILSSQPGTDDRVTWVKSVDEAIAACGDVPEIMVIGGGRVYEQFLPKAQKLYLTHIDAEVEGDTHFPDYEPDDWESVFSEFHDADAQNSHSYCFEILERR
Sequence of Nucleosome assembly protein 1 (NAP1) (A0A384KYS3 entry or part of it): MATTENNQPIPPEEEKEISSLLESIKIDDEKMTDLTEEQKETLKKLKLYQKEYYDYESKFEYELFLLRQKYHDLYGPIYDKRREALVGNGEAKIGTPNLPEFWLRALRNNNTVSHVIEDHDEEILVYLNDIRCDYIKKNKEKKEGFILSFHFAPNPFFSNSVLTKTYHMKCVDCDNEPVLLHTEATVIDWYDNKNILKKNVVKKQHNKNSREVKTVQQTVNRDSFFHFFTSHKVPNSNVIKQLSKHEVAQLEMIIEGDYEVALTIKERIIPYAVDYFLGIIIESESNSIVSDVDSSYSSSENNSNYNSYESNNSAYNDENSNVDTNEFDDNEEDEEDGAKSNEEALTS
Sequence of Ubiquitin conjugating enzyme (UCE) (Q8I607 1-147): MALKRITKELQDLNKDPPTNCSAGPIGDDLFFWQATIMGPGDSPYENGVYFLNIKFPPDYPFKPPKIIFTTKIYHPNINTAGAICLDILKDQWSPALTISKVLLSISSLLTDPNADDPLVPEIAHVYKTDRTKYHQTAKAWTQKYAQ

With `Nc1ccc(NC(=O)c2ccc(C(=O)Nc3ccc(N)cc3)cc2)cc1` [NSC 55152] the Kd [1] was about 73.8 µM, the “Q (quality score)” value [1] was 0.2 and the ΔTm ([1]; thermal shift, in °C (unit assumed)) was 5.89. For the same molecule, the Kd [2, 9] was about 39.6 µM, the ΔTm [2, 10] was 6.17 and the “Q (quality score)” value ([2]; Table S4, TrpRS) was 0.95. It also gave a Kd [2, 11] of 39.6 µM.
For `Nc1ccc(-c2nc3nc(N)nc(N)c3nc2-c2ccc(N)cc2)cc1` [NSC 61642, 6,7-bis(4-aminophenyl) pteridine-2,4-diamine, reference compound], the Kd [1] was about 2.03 µM, the “Q (quality score)” value [1] was 0.6 and the “Q (quality score of melting curve, ΔFmelt/ΔFtotal)” value [3] was 0.4. It also gave a ΔTm [3] of 0.71 °C and a Kd [3] of 275 µM.
`Nc1ccn([C@@H]2O[C@H](CO)[C@@H](O)[C@@H]2O)c(=O)n1` [NSC 63878] showed a Kd [4] of 183 µM.
With `Oc1cccc2nc3ccccc3nc12` [NSC 88882] the Kd [2, 9] was about 3.83 µM, the ΔTm [2, 10] was 12.07 and the “Q (quality score)” value ([2]; Table S4, TrpRS) was 0.6. The Kd [2, 11] was about 3.8 µM, the “HCT-116 (IC-50)” value ([5]; Table S4) was 4.44 and the “HCT-116 (IC-50)” value [5, 12] was 4.44 µg/mL. The Kd ([6]; Table S4, protein 1000001, computed from the thermal shifts obtained, read-out: KD (Approx)) was about 1.47 µM, the ΔTm ([6]; Table S4, protein 1000001) was 9.98 and the “Q (quality score)” value ([6]; Table S4, protein 1000001, ratio ΔFmelt/ΔFtotal) was 0.8. The ΔTm ([6]; Table S6, 1000001, known binders of 1000001) was 9.79 and the ΔTm [7] was 4.39.
For `NC(=O)c1cc2c3ccccc3ccn2c1-c1ccccc1` [NSC 93427], the “Q (quality score of melting curve, ΔFmelt/ΔFtotal)” value [8] was 0.05, the Kd ([8]; listed as 93427, read-out: KD (Approx)) was 1.38 µM and the Kd ([8]; listed as NSC93427, read-out: KD (Approx)) was about 1.4 µM. For the same molecule, the Kd ([8]; read-out: KD) was 1.38 µM, the ΔTm ([8]; listed as 93427) was 14.86 °C and the ΔTm ([8]; listed as NSC93427) was ~ 15 °C.
For `Cc1cc2nc(CS)[nH]c2cc1C` [NSC 97104], the “Q (quality score of melting curve, ΔFmelt/ΔFtotal)” value [3] was 0.5, the ΔTm [3] was 1.01 °C and the Kd [3] was 200 µM.
`Cc1nc2c(O)cccc2cc1CO` [NSC 227309] was tested, and the “Q (quality score of melting curve, ΔFmelt/ΔFtotal)” value [4] was 0.8, the ΔTm ([4]; Table S5, 1 mM ligand) was 0.64 °C and the Kd [4] was 371 µM.
In the case of `CCN(CC)CCNC(=O)c1c(C)[nH]c(/C=C2\C(=O)Nc3ccc(F)cc32)c1C` [NSC 750690, Sunitinib, reference compound], the “Q (quality score)” value ([2]; Table S4, TrpRS) is reported as 1.3, the ΔTm ([2]; thermal shift, 1 mM ligand, 10 μM protein) is reported as 14.57 °C and the IC50 ([5]; Homo sapiens, HCT-116, inhibitory concentration for 50% growth inhibition, read-out: HCT-116 (IC-50)) is reported as 1.1 µg/mL (≈ 2.76 µM). For the same molecule, the “HCT-116 (IC-50)” value [5, 12] was 1.11 µg/mL.
